Data: patent US10212937B2, “Microbicidal aqueous solutions including a monochloramine and a peracid, and methods of using the same” (priority 2015, dated 2019)

How the values were obtained:
Pseudomonas aeruginosa = experiment: Microbicidal evaluation in nutrient broth, lowest concentration completely preventing growth, Kull synergism calculation; format: cell-based; settings: contact time 24 hours, 37° C., approx. 10^6 cfu/ml, complete prevention of growth
Protocol: (§1) Nutrient broth (2.5 g/liter of deionized water) was prepared and dispensed in 5 ml amounts into test tubes and autoclaved for 20 minutes at 121° C. The biocides were added to the test tubes in the desired concentrations, and then 100 microliters of a 24-hour grown suspension of Pseudomonas aeruginosa or Enterobacter aerogenes cells were added to the respective test tubes to give a final count of approximately 10^6 cfu/ml and incubated at 37° C. at the indicated contact times.
(§2) End points for the various mixtures were then compared with the end points for the pure active ingredients alone in concomitantly prepared flasks or test tubes.
(§3) which produced an end point.
(§4) Qb=Lowest concentration of compound B in parts per million, acting alone,
(§5) QA=Lowest concentration of compound A in parts per million, in the mixture,
(§6) QB=Lowest concentration of compound B in parts per million, in the mixture,
(§7) When the sum of QA/Qa and QB/Qb is greater than one, antagonism is indicated. When the sum is equal to one, additivity is indicated. When the sum is less than one, synergism exists.
Contact time was 24 hours. The MCA and peracetic acid were obtained in the same manner as Example 1.

Enterobacter aerogenes = experiment: as above; format: cell-based; settings: contact time 15 hours
Protocol: as §1, §2, §3, §4, §5, §6, §7
Contact time was 15 hours. The MCA was obtained by combinations of ammonium sulfate in the form of Oxamine 6150 or Busan 1215 (all from Buckman Laboratories, Memphis, Tenn.) and the oxidant, Bulab 6004 (from Buckman Laboratories). The peracetic acid was from Sigma-Aldrich (32 wt. % in dilute acetic acid) which was diluted in deionized water to desired concentration range prior to adding it to the test systems.

[1] = 37° C., approx. 10^6 cfu/ml, complete prevention of growth

Row | SMILES | Qa, concentration of compound A acting alone which produced an end point (Pseudomonas aeruginosa) | Qa, concentration of compound A acting alone which produced an end point (Enterobacter aerogenes; [1]) | Qb, lowest concentration of compound B acting alone which produced an end point (Pseudomonas aeruginosa) | QB/Qb (Enterobacter aerogenes) | Qb, lowest concentration of compound B acting alone which produced an end point (Enterobacter aerogenes; [1])
1 | CC(=O)OO [peracetic acid] | 10 ppm | 25.0 ppm | – | – | –
2 | NCl [monochloramine] | – | – | 50 ppm | 0.5 | 100 ppm
